Data: patent US9440957B2, “Compounds and compositions for modulating EGFR Activity” (Novartis AG, priority 2012, dated 2016)
Like-named read-outs stand apart in the source and are kept apart here.

Assays:
EGFR(L858R/T790M) = molecular target: T1, EGFR(L858R/T790M) (Homo sapiens, UniProt P00533, L858R/T790M); assay: EGFR biochemical assay (HTRF), IC50 determinations
T1 construct: purchased from Carna (GST-a.a. 669-1210)
Method in brief: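 HTRF kinase reaction with biotin-TK peptide at room temperature, quenched with EDTA at 60 min and detected with PT66K/SAXL after 1 h. Without preincubation, enzyme starts the reaction with compound, ATP and peptide present. With preincubation, compound, enzyme and peptide sit at room temperature for a set time before ATP is added.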

[1] = molecular target: human EGFR WT (NIH/3T3 cells, EGF-induced) (Homo sapiens, UniProt P00533); assay: EGFR target modulation in engineered NIH/3T3 cell lines (phospho-EGFR Y1068 AlphaLISA), EGFR WT; format: cell-based; details: engineered NIH/3T3 cells, read-out: NIH3T3 IC50 (μM) EGFR (WT)
Method in brief: (§1)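 Read-out is phospho-Y1068 AlphaLISA on cell lysates, with anti-total EGFR at 1 nM final equilibrated 1 h at room temperature. Cells were dosed 3 h with a 12-point 1:3 series starting from a 10 μM stock. Only the WT line received 50 ng/ml EGF for 5 min.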

[2] = molecular target: human EGFR L858R (NIH/3T3 cells) (Homo sapiens, UniProt P00533, L858R); assay: EGFR target modulation in engineered NIH/3T3 cell lines (phospho-EGFR Y1068 AlphaLISA), EGFR L858R; format: cell-based; details: engineered NIH/3T3 cells, read-out: NIH3T3 IC50 (μM) EGFR (L858R)
Chain of human EGFR L858R (NIH/3T3 cells) (P00533 25-1210 L858R): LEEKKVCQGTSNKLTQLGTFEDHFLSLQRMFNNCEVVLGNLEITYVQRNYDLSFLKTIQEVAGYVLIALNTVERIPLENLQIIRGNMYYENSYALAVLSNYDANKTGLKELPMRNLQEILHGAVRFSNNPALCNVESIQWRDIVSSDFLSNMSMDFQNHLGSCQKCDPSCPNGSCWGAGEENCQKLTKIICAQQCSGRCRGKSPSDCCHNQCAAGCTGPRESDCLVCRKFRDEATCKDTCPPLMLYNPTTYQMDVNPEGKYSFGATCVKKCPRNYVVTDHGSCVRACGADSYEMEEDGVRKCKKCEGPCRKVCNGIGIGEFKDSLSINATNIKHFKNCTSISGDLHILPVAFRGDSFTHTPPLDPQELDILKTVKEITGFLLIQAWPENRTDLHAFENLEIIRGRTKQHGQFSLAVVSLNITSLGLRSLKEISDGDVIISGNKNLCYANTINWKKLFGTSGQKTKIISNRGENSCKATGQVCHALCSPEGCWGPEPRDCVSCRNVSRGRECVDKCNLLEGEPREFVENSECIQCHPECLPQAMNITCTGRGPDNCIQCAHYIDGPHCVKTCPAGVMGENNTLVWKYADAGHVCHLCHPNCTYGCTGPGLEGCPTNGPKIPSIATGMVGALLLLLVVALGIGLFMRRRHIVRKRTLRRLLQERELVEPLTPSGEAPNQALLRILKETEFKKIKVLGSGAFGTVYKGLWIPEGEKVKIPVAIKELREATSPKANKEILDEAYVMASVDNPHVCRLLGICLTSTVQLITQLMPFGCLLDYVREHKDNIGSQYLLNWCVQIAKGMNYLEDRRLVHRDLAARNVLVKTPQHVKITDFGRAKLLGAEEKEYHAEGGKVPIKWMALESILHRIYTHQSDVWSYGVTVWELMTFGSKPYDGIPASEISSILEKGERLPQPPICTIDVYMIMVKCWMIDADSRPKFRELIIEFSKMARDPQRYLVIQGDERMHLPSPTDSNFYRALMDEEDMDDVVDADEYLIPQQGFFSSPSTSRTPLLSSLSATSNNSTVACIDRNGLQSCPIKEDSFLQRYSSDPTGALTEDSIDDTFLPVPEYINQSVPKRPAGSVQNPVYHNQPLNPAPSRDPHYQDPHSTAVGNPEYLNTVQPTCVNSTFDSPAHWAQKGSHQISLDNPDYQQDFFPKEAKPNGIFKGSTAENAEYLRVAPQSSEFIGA
Method in brief: as §1

[3] = molecular target: human EGFR L858R/T790M (NIH/3T3 cells) (Homo sapiens, UniProt P00533, L858R/T790M); assay: EGFR target modulation in engineered NIH/3T3 cell lines (phospho-EGFR Y1068 AlphaLISA), EGFR L858R/T790M; format: cell-based; details: engineered NIH/3T3 cells, read-out: NIH3T3 IC50 (μM) EGFR (L858R/T790M)
Method in brief: as §1

H1975 (EGFR L858/T790M) = H1975 (EGFR L858/T790M) (Homo sapiens, UniProt P00533, L858R/T790M); assay: EGFR target modulation in H1975 cell line (phospho-EGFR Y1173 ELISA); format: cell-based
Protocol: (§2) EGFR Target Modulation in H1975, H3255 and HCC827 Cell Lines Tissue Culture. Cells were maintained in 10% FBS/RPMI supplemented with 100 μg/ml Penicillin/Streptomycin (Hyclone #SH30236.01). […] The cells were allowed to incubate overnight in a 37° C., 5% CO2 humidified tissue culture incubator. […] The serial diluted compounds were transferred to the plate containing cells by using a 50 nl Pin Head device (Perkin Elmer) and the cells were placed back in the incubator for 3 hours. Phospho-EGFR ([…]) Target Modulation Assay. The media was reduced to 20 ul using a Bio-Tek ELx 405 SelectTM plate washer. […] The plates were shaken at 4° C. for 20 minutes. An aliquot of 25 ul from each well was transferred to pEGFR(Y1173) ELISA plates for analysis. Phospho-EGFR ([…]) ELISA. Solid white high-binding ELISA plates (Greiner #781074) were coated with 5 ug/ml anti-EGFR capture antibody (R&D Systems #AF231) overnight in 50 mM carbonate/bicarbonate pH 9.5 buffer. Plates were blocked with 1% BSA (Sigma #A7030) in PBS for 1 hour at room temperature. Wash steps were carried out with a Bio-Tek ELx405 SelectTM using 4 cycles of 100 ul TBS-T (20 mM Tris, 137 mM NaCl, 0.05% Tween-20) per well. […] Lysis was allowed to occur for 20 minutes on ice. A 25 ul aliquot was added to each well of the blocked ELISA plate and incubated overnight at 4° C. with gentle shaking. […] After washing, 1:2,000 anti-rabbit-HRP (Cell Signaling #7074) in 0.2% BSA/TBS-T was added and incubated for 1 hour at room temperature. Chemiluminescent detection was carried out with SuperSignal ELISA Pico substrate (ThermoScientific #37069). Signal was read on EnVision plate reader using built-in UltraLUM setting. Data Analysis. Control cells treated with EGF were set to 100% maximum response. […] With these parameters, the IC50's for each compound in each cell line was calculated using non-linear curve fitting analysis.

H3255 (EGFR L858R) = H3255 (EGFR L858R) (Homo sapiens, UniProt P00533, L858R); assay: EGFR target modulation in H3255 cell line (phospho-EGFR Y1173 ELISA); format: cell-based
Chain of H3255 (EGFR L858R) (P00533 25-1210 L858R): as above
Protocol: as §2

HEKn (EGFR WT) = HEKn (EGFR WT) (Homo sapiens, UniProt P00533); assay: EGFR target modulation in HEKn (EGFR-WT) cell line (phospho-EGFR Y1173 ELISA); format: cell-based; details: value outside parentheses
Chain of HEKn (EGFR WT) (P00533 25-1210): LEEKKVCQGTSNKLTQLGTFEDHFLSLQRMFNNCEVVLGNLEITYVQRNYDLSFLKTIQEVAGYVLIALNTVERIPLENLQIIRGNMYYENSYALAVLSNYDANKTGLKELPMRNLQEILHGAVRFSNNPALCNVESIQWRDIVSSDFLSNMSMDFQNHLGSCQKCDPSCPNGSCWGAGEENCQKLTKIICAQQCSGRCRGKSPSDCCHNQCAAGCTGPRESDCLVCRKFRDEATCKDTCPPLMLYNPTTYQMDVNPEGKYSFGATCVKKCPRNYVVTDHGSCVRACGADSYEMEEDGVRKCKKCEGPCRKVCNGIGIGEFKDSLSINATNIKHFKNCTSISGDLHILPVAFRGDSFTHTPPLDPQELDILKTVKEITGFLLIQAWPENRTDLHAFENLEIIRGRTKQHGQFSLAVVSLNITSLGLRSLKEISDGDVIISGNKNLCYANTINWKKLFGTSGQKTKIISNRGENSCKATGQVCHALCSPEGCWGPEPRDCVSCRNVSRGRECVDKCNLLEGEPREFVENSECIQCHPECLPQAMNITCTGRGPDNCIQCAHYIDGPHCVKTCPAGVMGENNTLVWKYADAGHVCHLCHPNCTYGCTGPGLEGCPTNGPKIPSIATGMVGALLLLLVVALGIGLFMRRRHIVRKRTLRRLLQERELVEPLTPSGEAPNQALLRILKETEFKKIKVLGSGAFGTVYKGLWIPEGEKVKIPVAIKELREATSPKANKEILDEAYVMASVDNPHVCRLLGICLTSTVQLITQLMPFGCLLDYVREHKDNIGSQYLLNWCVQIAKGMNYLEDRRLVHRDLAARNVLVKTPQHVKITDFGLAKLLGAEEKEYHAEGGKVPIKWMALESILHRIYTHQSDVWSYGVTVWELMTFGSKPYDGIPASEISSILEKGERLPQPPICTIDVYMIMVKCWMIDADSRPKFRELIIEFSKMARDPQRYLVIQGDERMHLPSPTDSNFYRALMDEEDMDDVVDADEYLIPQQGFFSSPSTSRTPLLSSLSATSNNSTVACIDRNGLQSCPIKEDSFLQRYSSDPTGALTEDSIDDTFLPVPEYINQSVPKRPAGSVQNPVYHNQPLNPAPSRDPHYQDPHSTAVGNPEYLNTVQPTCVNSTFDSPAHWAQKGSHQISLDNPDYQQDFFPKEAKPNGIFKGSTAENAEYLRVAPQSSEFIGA
Protocol: EGFR Target Modulation in HEKn (EGFR-WT) Cell Line Tissue Culture. Human neonatal epithelial keratinocytes (Invitrogen #C-001-5C) were maintained in EpiLife media (Invitrogen #[…]) supplemented with growth factors (Invitrogen #S-001-5). Cells were harvested with 0.05% Trypsin/EDTA (Hyclone #SH30236.01) and quenched with 5% FBS/EpiLife media. […] The serial diluted compounds were transferred to the plate containing cells by using a 50 nl Pin Head device (Perkin Elmer) and the cells were placed back in the incubator for 3 hours. […] Phospho-EGFR (Y1173) ELISA. Solid white high-binding ELISA plates (Greiner #781074) were coated with 5 ug/ml anti-EGFR capture antibody (R&D Systems #AF231) overnight in 50 mM carbonate/bicarbonate pH 9.5 buffer. […] Wash steps were carried out with a Bio-Tek ELx405 SelectTM using 4 cycles of 100 ul TBS-T (20 mM Tris, 137 mM NaCl, 0.05% Tween-20) per well. […] Lysis was allowed to occur for 20 minutes on ice. A 25 ul aliquot was added to each well of the blocked ELISA plate and incubated overnight at 4° C. with gentle shaking. […] After washing, 1:2,000 anti-rabbit-HRP (Cell Signaling #7074) in 0.2% BSA/TBS-T was added and incubated for 1 hour at room temperature. Chemiluminescent detection was carried out with SuperSignal ELISA Pico substrate (ThermoScientific #37069). Signal was read on EnVision plate reader using built-in UltraLUM setting. Data Analysis. Control cells treated with EGF were set to 100% maximum response. […] With these parameters, the IC50's for each compound in each cell line was calculated using non-linear curve fitting analysis.

[4] = EGFR (L858R/T790M) with 90 min pre-incubation, read-out: IC50 (μM) Column B
[5] = EGFR (L858R/T790M) with no pre-incubation, read-out: IC50 (μM) Column A

T1 sequence (P00533 669-1210 T790M/L858R): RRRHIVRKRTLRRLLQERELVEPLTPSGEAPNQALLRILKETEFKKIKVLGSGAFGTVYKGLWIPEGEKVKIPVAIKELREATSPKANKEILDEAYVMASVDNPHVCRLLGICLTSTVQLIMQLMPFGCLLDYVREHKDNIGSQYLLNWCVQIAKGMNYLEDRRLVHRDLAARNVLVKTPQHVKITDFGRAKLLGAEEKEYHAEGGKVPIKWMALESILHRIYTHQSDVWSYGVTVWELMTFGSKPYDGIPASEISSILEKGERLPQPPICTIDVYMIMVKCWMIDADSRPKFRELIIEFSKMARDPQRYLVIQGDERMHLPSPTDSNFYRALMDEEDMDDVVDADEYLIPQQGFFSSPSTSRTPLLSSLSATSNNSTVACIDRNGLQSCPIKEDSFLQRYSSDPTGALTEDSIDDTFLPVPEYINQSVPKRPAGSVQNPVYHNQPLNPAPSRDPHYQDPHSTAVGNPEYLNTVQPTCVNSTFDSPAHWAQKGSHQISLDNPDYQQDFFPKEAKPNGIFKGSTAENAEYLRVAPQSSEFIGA

Row | SMILES | IC50 (EGFR(L858R/T790M); [4]) [µM] | IC50 (EGFR(L858R/T790M); [5]) [µM] | IC50 [1] [µM] | IC50 [2] [µM] | IC50 [3] [µM] | IC50 (H1975 (EGFR L858/T790M)) [nM] | IC50 (H3255 (EGFR L858R)) [nM] | IC50 (HEKn (EGFR WT)) [nM]
1 | Cc1ncc(C(=O)Nc2nc3cccc(C)c3n2C2CCCCN(C(=O)/C=C/CN(C)C)C2)s1 (single isomer, unassigned) [Example 21-8B] | < 0.001 | 0.006 | 0.016 | 0.001 | 0.002 | 4 | 2 | 95
2 | Cc1cc(C(=O)Nc2nc3cccc(C)c3n2[C@@H]2CCCCN(C(=O)/C=C/CN(C)C)C2)ccn1 [Example 7, (R,E)-N-(1-(1-(4-(dimethylamino)but-2-enoyl)azepan-3-yl)-7-methyl-1H-benzo[d]imidazol-2-yl)-2-methylisonicotinamide] | < 0.001 | 0.002 | 0.019 | 0.001 | 0.001 | 1 | 2 | 74
3 | Cc1cccc2nc(NC(=O)c3ccnc(C(F)(F)F)c3)n([C@@H]3CCCCN(C(=O)/C=C/CN(C)C)C3)c12 [Example 8, (R,E)-N-(1-(1-(4-(dimethylamino)but-2-enoyl)azepan-3-yl)-7-methyl-1H-benzo[d]imidazol-2-yl)-2-(trifluoromethyl)isonicotinamide] |  |  | 0.021 | 0.001 | 0.001 | 1 | 2 | 82
4 | C=CC(=O)N1CCCC[C@@H](n2c(NC(=O)c3ccnnc3)nc3ccc(OC)c(Cl)c32)C1 [Example 9, (R)—N-(1-(1-acryloylazepan-3-yl)-7-chloro-6-methoxy-1H-benzo[d]imidazol-2-yl)pyridazine-4-carboxamide] | < 0.001 | 0.006 | 0.101 | 0.008 | 0.002 | 3 | 8 | 152
5 | C=CC(=O)N1CCC[C@@H](n2c(NC(=O)c3cccc(C(F)(F)F)c3)nc3cc(C(=O)O)ccc32)C1 [Example 18, (R)-1-(1-acryloylpiperidin-3-yl)-2-(3-(trifluoromethyl)benzamido)-1H-benzo[d]imidazole-5-carboxylic acid] | 0.041 | 2.59 | > 10 | > 10 | 6.3 |  |  | 
6 | C=CC(=O)N1CCCCC(n2c(NC(=O)c3cccc(C(F)(F)F)c3)nc3cccc(C(=O)O)c32)C1 (centres unmarked) [Example 20, 1-(1-acryloylazepan-3-yl)-2-(3-(trifluoromethyl)benzamido)-1H-benzo[d]imidazole-7-carboxylic acid] | 0.005 | 0.11 | > 10 | 3.3 | 0.82 |  |  | 

The remaining lines, values ahead:

Row | IC50 (EGFR(L858R/T790M); [4]) [µM] | IC50 (EGFR(L858R/T790M); [5]) [µM] | IC50 [1] [µM] | IC50 [2] [µM] | IC50 [3] [µM] | IC50 (H1975 (EGFR L858/T790M)) [nM] | IC50 (H3255 (EGFR L858R)) [nM] | IC50 (HEKn (EGFR WT)) [nM] | SMILES
7 | < 0.001 | 0.006 | 0.239 | 0.004 | 0.002 | 1 | 13 | 285 | C=CC(=O)N1CCCC[C@@H](n2c(NC(=O)c3cccc(C(F)(F)F)c3)nc3cccc(C)c32)C1 (single isomer, unassigned) [Example 21-4]
8 | < 0.001 | 0.005 | 0.235 | 0.003 | 0.004 | 6 | 7 | 340 | Cc1cc(C(=O)Nc2nc3cccc(Cl)c3n2[C@@H]2CCCCN(C(=O)/C=C/CN3CC[C@@H](F)C3)C2)ccn1 [Example 3-1]
9 | < 0.001 | 0.007 | 0.303 | 0.006 | 0.006 | 9 | 11 | 720 | Cc1cc(C(=O)Nc2nc3cccc(Cl)c3n2[C@@H]2CCCCN(C(=O)/C=C/CN3CC[C@H](F)C3)C2)ccn1 [Example 3-2]
10 | < 0.001 | 0.006 |  |  |  | 8 | 13 | 620 | Cc1cc(C(=O)Nc2nc3cccc(C)c3n2[C@@H]2CCCCN(C(=O)/C=C/CN3CC[C@@H](F)C3)C2)ccn1 [Example 3-10]
11 | < 0.001 | 0.005 |  |  |  | 7 | 9 | 169 | O=C(Nc1nc2cccc(Cl)c2n1[C@@H]1CCCCN(C(=O)/C=C/CN2CC[C@@H](F)C2)C1)c1ccnnc1 [Example 3-11]
12 | 0.011 | 0.133 | 1.13 | 0.05 | 0.123 | 186 | 200 | > 10000 | Cc1cc(C(=O)Nc2nc3cccc(Cl)c3n2[C@@H]2CCCCN(C(=O)/C=C/CN3CCC3)C2)ccn1 [Example 3-12]
13 | < 0.001 | 0.007 | 0.41 | 0.014 | 0.022 | 19 | 12 | 900 | Cc1cc(C(=O)Nc2nc3cccc(Cl)c3n2[C@@H]2CCCCN(C(=O)/C=C/CN3CC(O)C3)C2)ccn1 [Example 3-13]
14 | 0.002 | 0.018 | 0.38 | 0.018 | 0.015 | 76 | 170 | 2340 | COc1ccc2nc(NC(=O)c3ccnnc3)n([C@@H]3CCCCN(C(=O)/C=C/CN(C)C)C3)c2c1Cl [Example 17-2]
15 | < 0.001 | 0.007 |  |  |  | 1 | 17 | 237 | C=CC(=O)N1CCCC[C@@H](n2c(NC(=O)c3cccc(F)c3F)nc3cc(CN4CC[C@@H](OC)C4)cc(C)c32)C1 [Example 17-160]
16 | < 0.001 | 0.003 |  |  |  | 4 | 4 | 93 | COc1ccc2nc(NC(=O)c3ccnc(C)c3)n([C@@H]3CCCCN(C(=O)/C=C/CN(C)C)C3)c2c1Cl [Example 17-177]
17 | 0.012 | 0.23 |  |  |  | 234 | 188 | 5400 | COc1cc2nc(NC(=O)c3cc(C)nc(C)c3)n([C@@H]3CCCCN(C(=O)/C=C/CN(C)C)C3)c2cc1Cl [Example 17-179]
